Source: patent publication US5654267A, “Cooperative combinations of ligands contained within a matrix” (La Jolla Cancer Research Center, priority 1994, dated 1997)

What was measured:
[1] = tested on: Rat-1 cells; assay: DNA synthesis ([3H]-thymidine incorporation) in EGF-stimulated Rat-1 cells; type: cell-based; details: 40 ng/ml EGF, 20 μg/ml coating, FIG. 6
Procedure: (§1) Rat-1 cells were plated at 1×10^5 cells/well on 24-well plates that had been coated for 12 hours either with 20 μg/ml of vitronectin or 20 μg/ml of type I collagen. Cells were incubated for 36 hours in Dulbecco's modified Eagle's medium containing 0.1% bovine serum albumin followed by addition of buffer or 40 ng/ml EGF (Boehringer Mannheim). After 15 hours, the cells were pulse-labeled with 1 μCi/ml [^3 H]-thymidine (specific activity 6.7 Ci/mmol, DuPont NEN) for 3 hours and thymidine incorporation into DNA was determined by liquid scintillation counting.
After being serum-starved, the cells were treated with buffer only (samples 1 and 2) or with EGF (samples 3 and 4). Data points are the average of triplicate samples.

[2] = tested on: NRK cells; assay: DNA synthesis in IGF-1-treated NRK cells on vitronectin, collagen or laminin; type: cell-based; details: data not shown
[3] = tested on: human foreskin fibroblasts; assay: DNA synthesis ([3H]-thymidine incorporation) in PDGF-stimulated human foreskin fibroblasts; type: cell-based; details: 40 ng/ml PDGF-BB, 20 μg/ml coating, FIG. 5 column 3 vs 4
Procedure: as §1, with “Human foreskin fibroblasts (Coriell) were” for “Rat-1 cells were”, “vitronectin of” for “vitronectin or”, “ng/ml PDGF-BB” for “ng/ml EGF”
Cells were serum-starved and treated with buffer only (samples 1 and 2) or with PDGF (samples 3 and 4). Data points are the average of duplicate samples.

[4] = tested on: FG-C cells (αv β3 integrin negative human pancreatic carcinoma cells); assay: DNA synthesis ([3H]-thymidine incorporation) in insulin-stimulated FG-C cells on vitronectin or type I collagen; type: cell-based; details: lack αv β3, FIG. 4 columns 3, 4, 7, 8, 11, 12
Procedure: (§2) FG-B (columns 1, 2, 5, 6, 9, and 10) and FG-C cells (columns 3, 4, 7, 8, 11, and 12) were plated at 1×10^5 cells/well on 24-well plates that had been coated either with vitronectin (dark column) or type I collagen (open column). Plates were coated with 10 μg/ml of either vitronectin or type I collagen for 12 hours followed by blocking with 0.5% bovine serum albumin for 2 hours. Cells were incubated for 36 hours in DMEM containing 10% FCS (columns 1 to 4), or in DMEM containing 0.1% BSA followed by addition of buffer (columns 5 to 8) or 100 mM insulin (columns 9 to 12). FCS is used as a control because it provides maximal stimulation owing to the presence of high levels of growth factors and adhesion proteins.
(§3) After 15 hours, the cells were pulse-labeled with 1 μCi/ml [^3 H]-thymidine (specific activity 6.7 Ci/mmol, DuPont NEN) for 3 hours and thymidine incorporation into DNA was determined by trichloroacetic acid precipitation and liquid scintillation counting. Error bars indicate the standard error of triplicate determinations.

[5] = tested on: αv β3 integrin-IRS-1 association; assay: Association of IRS-1 with the vitronectin receptor (αv β3) in insulin-stimulated HIRcB cells, immunoprecipitation/immunoblot densitometry; type: cell-based, rat
Procedure: HIRcB cells were grown to 80% confluency in Dulbeccos's modified Eagle's medium (DMEM) containing 10% fetal calf serum (FCS) and 500 nM methotrexate, incubated in DMEM +0.1% BSA for 36 hours, and either left quiescent, or stimulated with 100 nM insulin (Sigma) for 3 minutes. Cell monolayers were rinsed with PBS, frozen with liquid nitrogen and lysed in NP-40 lysis buffer (20 mM Tris-HCl (pH 8.0), 1% NP-40, 10% glycerol, 137 mM NaCl, 1 mM CaCl2, 1 mM MgCl2, 1 mM sodium orthovanadate, 50 mM sodium fluoride, 1 mM phenylmethylsulfonylfluoride, 0.1 U/ml aprotinin, 10 μg/ml pepstatin A). HIRcB cells were immunoprecipitated with anti-αv β3 237 according to Suzuki et al., PNAS USA 83:8614 (1986), as shown in lanes 1 and 3, 237 preimmune serum in lane 2, anti-αv β3 1343 in lane 4, anti-αv β3 in lane 5, anti-α5 β1488 in lane 6 (made according to Argraves et al., J. Cell Biol. 105:1183 (1987)) and an unrelated rabbit antiserum (lane 7). Anti-αv β3 1343 was obtained from a person (Telios Pharmaceuticals, Inc.) and anti-αIIb β3 from Dr. Elisabetta Dejana (Mario Negri Institute, Milan, Italy). Three anti-α5 β1 antibodies and six unrelated polyclonal antibodies tested gave results similar to those shown in lanes 6 and 7. […] In lane 8, anti-αv β3 237 immunocomplexes from insulin-treated cells were dissociated and reprecipitated with the same antibody as follows. […]

[6] = tested on: FG-B cells (αv β3 integrin positive human pancreatic carcinoma cells); assay: DNA synthesis ([3H]-thymidine incorporation) in insulin-stimulated FG-B cells on vitronectin or type I collagen; type: cell-based; details: 100 mM insulin, plates coated with 10 μg/ml vitronectin or type I collagen, FIG. 4 columns 9, 10
Procedure: as §2, §3

[7] = tested on: HIRcB, NIH 3T3, NRK, HT29, UCLA-P3 and Panc-1 cells; assay: Insulin responsiveness in a panel of αv β3 and αv β5 expressing cell lines on different substrates; type: cell-based; details: panel of six cell lines
Excerpt: A correlation between αv β3 expression and increased insulin responsiveness on vitronectin was also found in a panel of three cell lines expressing αv β3 and three lines expressing only αv β5. […] All the cell lines attached equally to vitronectin. NRK, HT29, UCLA-P3 and Panc-1 attached also to laminin and collagen, and HIRcB and NIH 3T3 cells attached to laminin. The attachment to laminin and collagen was inhibited by anti-β1 antibodies (Vuori and Ruoslahti, unpublished data, and Hayman et al., J. Cell Biol. 100:1948 (1985); Hayashi et al., J. Cell biol. 110:175 (1990); Schreiner et al., Clin. Expl. Metastasis 9:163 (1991); and Cheresh et al., supra).

EGF: Epidermal growth factor (Boehringer Mannheim) (NSDSECPLSHDGYCLHDGVCMYIEALDKYACNCVVGYIGERCQYRDLKWWELR; UniProt P01133 971-1023, looked up)
DNA synthesis response to EGF on vitronectin versus collagen [1]: same response

IGF-1: insulin-like growth factor (IGF-1), signals through IRS-1
higher DNA synthesis in response to IGF-1 when plated on vitronectin than on collagen or laminin [2]: about 2.3 fold

PDGF: platelet derived growth factor, PDGF-BB (Boehringer Mannheim)
higher DNA synthesis in response to PDGF when plated on vitronectin than on collagen [3]: about 2.3 fold

insulin
difference in the DNA synthesis response on vitronectin and collagen [4]: no difference
time of insulin stimulation to maximal IRS-1-vitronectin receptor association ([5]; HIRcB cells): 3 min
IRS-1 complexed with the vitronectin receptor ([5]; insulin-stimulated HIRcB cells, share of IRS-1 of total cell lysate): Five to eight
higher DNA synthesis in response to insulin when plated on vitronectin than on collagen [6]: about 2.5 fold
effect of attachment to laminin on insulin responsiveness [7]: did not increase
